Consider 27 compounds from ChEMBL document CHEMBL4888484, “Replenishing the malaria drug discovery pipeline: Screening and hit evaluation of the MMV Hit Generation Library 1 (HGL1) against asexual blood stage Plasmodium falciparum ,using a nano luciferase reporter read-out” (2022).

Data set [1] relates to Plasmodium falciparum. In words: Hit confirmation in dose-response curve in Dd2 pLDH assay, at 72h. In kind it is functional, organism-based. Also on record: timepoint 72 hour. The note with it: Dd2, Erythrocyte.
Data set [2] relates to Plasmodium falciparum. Kind of data set: Hit confirmation in dose-response curve in NF54 nanoGlo assay, at 72h. Also on record: timepoint 72 hour. The note with it: Plasmodium falciparum, NF54, Erythrocyte, 72 h. In kind it is functional, organism-based, Erythrocyte.
In data set [3] the test system is Plasmodium falciparum. In words: Hit confirmation in dose-response curve in NF54 pLDH assay, at 72h. Also on record: timepoint 72 hour. The note with it: NF54, Erythrocyte. The format is functional, organism-based.
Data set [4] has as its system Plasmodium falciparum. Kind of data set: Hit confirmation in dose-response curve in NF54 nanoGlo assay, at 12h. In kind it is functional, organism-based, Erythrocyte. Also on record: timepoint 12 hour. The note with it: Plasmodium falciparum, NF54, Erythrocyte, 12 h.
Data set [5] can be described thus: Hit confirmation in dose-response curve in HepG2 cytotoxicity assay, at 72h. In kind it is toxicity, cell-based. As to conditions: human, HepG2 cells. Further details: timepoint 72 hour.

Take `CCN(CC)C(=O)c1cnc2snc(C)c2c1N1CCC(C(=O)Nc2c(C)cc(C)cc2C)CC1`: the IC50 with Plasmodium falciparum [1] is greater than 10 µM; in the data set on Plasmodium falciparum [2], 3.24 µM; with Plasmodium falciparum [3], greater than 10 µM; in the data set on Plasmodium falciparum [4], 5.89 µM. In data set [5], the IC50 at 72 h is greater than 10 µM.
Turning to `N#Cc1c(-c2ccccc2)cc(-c2ccccc2)nc1S(=O)(=O)Cc1ccccc1`, the half-maximal inhibitory concentration (IC50) came out at 3.55 µM in the data set on Plasmodium falciparum [1], 3.09 µM in the data set on Plasmodium falciparum [2], 4.07 µM in the data set on Plasmodium falciparum [3] and 6.61 µM in the data set on Plasmodium falciparum [4]. In data set [5], the IC50 at 72 h is greater than 10 µM.
Take `CCNC(=O)N1CC[C@H](Oc2ccc3ccccc3n2)C1`: the IC50 was 3.72 µM with Plasmodium falciparum [1], 2.69 µM in the data set with Plasmodium falciparum [2], 7.41 µM in the data set on Plasmodium falciparum [3] and greater than 10 µM in the data set with Plasmodium falciparum [4]. The compound also had an IC50 at 72 h in data set [5] greater than 10 µM.
Turning to `CCOc1cc(CNc2cccc3ccccc23)cc(Br)c1OCC(=O)NC(C)(C)C`, the IC50 with Plasmodium falciparum [1], in the data set with Plasmodium falciparum [2], in the data set on Plasmodium falciparum [3] and with Plasmodium falciparum [4] was greater than 10 µM each time. In data set [5], this compound yielded an IC50 at 72 h greater than 10 µM.
In the case of `COc1ccc(-n2ncc3c(N)c4c(nc32)CCCC4=O)cc1`, the IC50 in the data set with Plasmodium falciparum [1] was greater than 10 µM; with Plasmodium falciparum [2], 6.61 µM; in the data set on Plasmodium falciparum [3], greater than 10 µM; in the data set on Plasmodium falciparum [4], 3.89 µM. The same compound yielded an IC50 at 72 h in data set [5] greater than 10 µM.
On to `COc1ccc(-c2csc(-n3cc(C4=CCN(CCO)CC4)cn3)n2)cc1`, for which the IC50 was greater than 10 µM with Plasmodium falciparum [1], 5.13 µM in the data set on Plasmodium falciparum [2], 5.5 µM in the data set with Plasmodium falciparum [3] and greater than 10 µM in the data set on Plasmodium falciparum [4]. In data set [5], this compound yielded an IC50 at 72 h greater than 10 µM.
Consider `COc1ccc(-c2c(-c3cccc(OC)c3)[nH]c3c2c(=O)[nH]c(=O)n3C)cc1`, for which the IC50 in the data set on Plasmodium falciparum [1], in the data set on Plasmodium falciparum [2], with Plasmodium falciparum [3] and with Plasmodium falciparum [4] was greater than 10 µM each time. The compound also yielded an IC50 at 72 h in data set [5] greater than 10 µM.
As to `COc1ccc(CNC(=O)c2ccc(N3C(=O)[C@@H]4Cc5c([nH]c6ccccc56)C(c5cccc(OC)c5)N4C3=O)cc2)cc1` (stereo not given in full), the IC50 is 8.91 µM in the data set on Plasmodium falciparum [1], 3.16 µM in the data set on Plasmodium falciparum [2], greater than 10 µM in the data set on Plasmodium falciparum [3] and 6.92 µM in the data set with Plasmodium falciparum [4]. In data set [5], the IC50 at 72 h is greater than 10 µM.
Take `CCOc1ccc(Nc2c3ccccc3nc3ccccc23)cc1`: the IC50 amounted to 1.86 µM with Plasmodium falciparum [1], 1.55 µM with Plasmodium falciparum [2], 3.47 µM in the data set with Plasmodium falciparum [3] and 5.75 µM with Plasmodium falciparum [4]. Further, the IC50 at 72 h in data set [5] is greater than 10 µM.
Taken in the same sequence, the figures for `CCn1cc(C#N)c(=O)c2cc(F)c(N3CCN(Cc4ccccc4)CC3)cc21` were greater than 10 µM, greater than 10 µM, greater than 10 µM, greater than 10 µM and greater than 10 µM.
With `CN1CCN(C2(CNc3ccnc4ccccc34)CCCC2)CC1`, the IC50 stood at 0.355 µM in the data set on Plasmodium falciparum [1], 0.479 µM with Plasmodium falciparum [2], 0.38 µM in the data set with Plasmodium falciparum [3] and 0.708 µM with Plasmodium falciparum [4]. The IC50 at 72 h in data set [5] was greater than 10 µM.
For the compound `Cc1cc(OCCOCCNCCN)cc(C(C)C)c1`, the IC50 is 10.7 µM with Plasmodium falciparum [1], 4.68 µM with Plasmodium falciparum [2], greater than 10 µM in the data set on Plasmodium falciparum [3] and greater than 10 µM with Plasmodium falciparum [4]. The IC50 at 72 h in data set [5] was greater than 10 µM.
For `Cn1c(N)c(S(=O)(=O)N2CCN(c3ccccc3Cl)CC2)c(=O)n(C)c1=O`, the IC50 with Plasmodium falciparum [1] was greater than 10 µM; with Plasmodium falciparum [2], 1.51 µM; in the data set with Plasmodium falciparum [3], greater than 10 µM; in the data set with Plasmodium falciparum [4], 0.501 µM. The IC50 at 72 h in data set [5] is greater than 10 µM.
For the compound `Cc1ccc(-c2c[n+](-c3ccc(OC(F)F)cc3)c3n2CCCCC3)cc1`, the IC50 in the data set on Plasmodium falciparum [1] is 1.2 µM; in the data set with Plasmodium falciparum [2], 0.891 µM; with Plasmodium falciparum [3], 1.66 µM; with Plasmodium falciparum [4], greater than 10 µM. In data set [5], the IC50 at 72 h is greater than 10 µM.
Consider `COc1ccc(OC)c(NC(=O)CN2CCc3[nH]c4ccc(F)cc4c(=O)c3C2)c1`, for which the IC50 with Plasmodium falciparum [1] is 7.94 µM; with Plasmodium falciparum [2] it was 8.32 µM; in the data set with Plasmodium falciparum [3], greater than 10 µM; in the data set on Plasmodium falciparum [4], greater than 10 µM. In data set [5], the IC50 at 72 h was greater than 10 µM.
As to `CC(=O)c1cccc(NC(=O)[C@@]23CCC(=O)N2c2ccccc2C(=O)N3C)c1`, the IC50 in the data set on Plasmodium falciparum [1] worked out at 2.82 µM; with Plasmodium falciparum [2], 1.91 µM; with Plasmodium falciparum [3], 5.89 µM; in the data set with Plasmodium falciparum [4], 3.09 µM. Further, the IC50 at 72 h in data set [5] is greater than 10 µM.
As for `Cc1cnccc1NCCNC1CCN(c2ccc(Cl)cc2)CC1`, the IC50 in the data set on Plasmodium falciparum [1] came to 0.372 µM; with Plasmodium falciparum [2], 0.316 µM; in the data set with Plasmodium falciparum [3], 0.363 µM; with Plasmodium falciparum [4], 0.417 µM. This compound also gave an IC50 at 72 h in data set [5] of 5.25 µM.
For `Oc1ccc2ncccc2c1[C@@H](Nc1ccccn1)c1cccc(Br)c1` the same measures were 2.75 µM, 1.58 µM, 5.13 µM, 3.09 µM and greater than 10 µM.
Turning to `CC(NCC(O)Cn1c(-c2ccccc2)c(-c2ccccc2)c2ccc3ccccc3c21)c1ccccc1` (stereo not given), the IC50 turned out to be 7.94 µM in the data set with Plasmodium falciparum [1], 1.62 µM in the data set on Plasmodium falciparum [2], 9.12 µM with Plasmodium falciparum [3] and 1.95 µM with Plasmodium falciparum [4]. In addition, the IC50 at 72 h in data set [5] was greater than 10 µM.
On to `Nc1nc(C2CC(N)C2)cc(N2CCC(Oc3ccccc3Cl)CC2)n1` (stereo not given), for which the IC50 in the data set with Plasmodium falciparum [1] was found to be 3.24 µM; in the data set with Plasmodium falciparum [2], 1.82 µM; in the data set on Plasmodium falciparum [3], 4.07 µM; in the data set on Plasmodium falciparum [4], 3.16 µM. In addition, the IC50 at 72 h in data set [5] was greater than 10 µM.
Take `O[C@@H](CNCc1ccsc1C(F)(F)F)c1cc(Cl)c2c(c1)OCCO2`: the IC50 with Plasmodium falciparum [1] was 3.47 µM; in the data set on Plasmodium falciparum [2] it was 3.16 µM; in the data set on Plasmodium falciparum [3], 6.46 µM; with Plasmodium falciparum [4], 7.24 µM. Further, in data set [5], the half-maximal inhibitory concentration (IC50) at 72 h is greater than 10 µM.
Regarding `O=C(c1ccccc1)c1ccc(O)c(CN2CCCN(c3ccc(C(F)(F)F)cn3)CC2)c1O`, the IC50 is 3.09 µM in the data set on Plasmodium falciparum [1], 1.82 µM in the data set with Plasmodium falciparum [2], 3.72 µM in the data set with Plasmodium falciparum [3] and 2.82 µM in the data set on Plasmodium falciparum [4]. In data set [5], the IC50 at 72 h is greater than 10 µM.
As for `COc1ccc(S(=O)(=O)N2CCC(c3cc(N)on3)CC2)cc1Cl`, the IC50 with Plasmodium falciparum [1] was 3.89 µM; with Plasmodium falciparum [2] it was 1.82 µM; in the data set on Plasmodium falciparum [3], 6.31 µM; in the data set with Plasmodium falciparum [4], greater than 10 µM. Further, in data set [5], the IC50 at 72 h is greater than 10 µM.
Consider `COc1cc(OC)cc(C(=O)Nc2ccc3nc(N4CCC(C)CC4)cc(C)c3c2)c1`, for which the IC50 is 5.01 µM in the data set with Plasmodium falciparum [1], 3.16 µM with Plasmodium falciparum [2], greater than 10 µM in the data set on Plasmodium falciparum [3] and 6.76 µM in the data set with Plasmodium falciparum [4]. In data set [5], the IC50 at 72 h is greater than 10 µM.
Turning to `COc1ccccc1Cn1cnc2c1c(=O)n(C1CCCCC1)c(=O)n2-c1ccccc1Cl`, the IC50 in the data set with Plasmodium falciparum [1] was 3.16 µM; in the data set on Plasmodium falciparum [2] it was 1.41 µM; in the data set with Plasmodium falciparum [3], 3.98 µM; in the data set with Plasmodium falciparum [4] it was greater than 10 µM. This compound displayed a concentration for half-maximal inhibition (IC50) at 72 h in data set [5] greater than 10 µM.
As to `COc1cc2c(cc1OC)[C@@H](NC(=O)c1cnc(C3(C)OCCO3)s1)CCCC2`, the IC50 turned out to be 4.79 µM with Plasmodium falciparum [1], 2.04 µM in the data set with Plasmodium falciparum [2], 7.41 µM in the data set with Plasmodium falciparum [3] and 4.79 µM with Plasmodium falciparum [4]. In data set [5], this compound gave a 50% inhibitory concentration (IC50) at 72 h greater than 10 µM.
Take `CCc1ccc(C2=C[C@@H](c3cccc(OC)c3)n3ncc(C(=O)Nc4ccc(C)cc4)c3N2)cc1`: the IC50 in the data set with Plasmodium falciparum [1] was found to be 3.8 µM; with Plasmodium falciparum [2], 2.63 µM; with Plasmodium falciparum [3] it was 8.71 µM; with Plasmodium falciparum [4], 3.8 µM. Also, the IC50 at 72 h in data set [5] was greater than 10 µM.
